{
  "source": "patent US20220324865A1",
  "about": "(Bayer Aktiengesellschaft, priority 2018, published 2022)",
  "data": [
    {"biological_target": "T1, human EP3 receptor (Homo sapiens, UniProt P43115)", "T1 construct": "expressed in transfected cells; host or cells: CHO K1 (Chinese Hamster Ovary), stably co-transfected with Galpha16 and mitochondrial clytin", "T1 sequence (P43115 1-390)": "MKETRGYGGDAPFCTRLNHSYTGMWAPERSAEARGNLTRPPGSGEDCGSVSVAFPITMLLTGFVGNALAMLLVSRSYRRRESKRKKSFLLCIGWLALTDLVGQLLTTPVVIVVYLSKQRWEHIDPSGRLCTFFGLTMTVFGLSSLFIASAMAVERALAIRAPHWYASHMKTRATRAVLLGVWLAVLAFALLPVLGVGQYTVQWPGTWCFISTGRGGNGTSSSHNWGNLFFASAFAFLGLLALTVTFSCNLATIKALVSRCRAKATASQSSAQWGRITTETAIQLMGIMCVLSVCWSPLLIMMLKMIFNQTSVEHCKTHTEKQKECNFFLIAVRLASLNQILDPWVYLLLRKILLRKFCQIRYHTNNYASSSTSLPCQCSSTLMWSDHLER", "assay": "Cellular in vitro assay for determining EP3 receptor activity (human EP3 cell line, sulprostone-stimulated calcium luminescence)", "format": "cell-based", "settings": "CHO cells expressing human EP3 and mitochondrial Clytin; antagonist mode, sulprostone at EC50; read-out: EP3 CHO mtCLY ANTAG IC50", "method_in_brief": "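CHO K1 cells stably expressing human EP3 with Gα16 and mitochondrial Clytin, loaded overnight with coelenterazine. Compounds added 10 min before sulprostone at its EC50; antagonism read immediately as reduced calcium-driven luminescence, quadruplicate points.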", "units": {"IC50": "nM"}, "values": [
      {"smiles": "COC[C@H](NC(=O)c1cc2c(=O)[nH]c(-c3ccc4ccccc4c3)cn2n1)c1ccccc1", "note": "[Example 1-2, N-[(1R)-2-Methoxy-1-phenylethyl]-6-(naphthalen-2-yl)-4-oxo-4,5-dihydropyrazolo[1,5-a]pyrazine-2-carboxamide]", "IC50": 2.5},
      {"smiles": "Cc1cc(-c2cn3nc(C(=O)N[C@@H](c4ccc(F)cc4)C(C)(C)O)c(C(C)C)c3c(=O)[nH]2)ccc1Cl", "note": "[6-606]", "IC50": 2.3},
      {"smiles": "Cc1cc(-c2cn3nc(C(=O)NC(C)C4CCC4)c(C(F)(F)F)c3c(=O)[nH]2)ccc1Cl", "note": "(single isomer, unassigned) [6-223]", "IC50": 1.25},
      {"smiles": "O=C(NCC(O)C(F)(F)F)c1nn2cc(-c3ccc4c(c3)OCCO4)[nH]c(=O)c2c1C(F)(F)F", "note": "(single isomer, unassigned) [6-532]", "IC50": 8.9},
      {"smiles": "Cc1cccc2ncc(-c3cn4nc(C(=O)N[C@@H](C)c5ccccc5)c(C(C)C)c4c(=O)[nH]3)cc12", "note": "[Example 4-59, 6-(5-Methylquinolin-3-yl)-4-oxo-N-[(7S)-1-phenylethyl]-3-(propan-2-yl)-4,5-dihydropyrazolo[1,5-a]pyrazine-2-carboxamide]", "IC50": 0.675},
      {"smiles": "Cc1cccc2ncc(-c3cn4nc(C(=O)NC5CCc6ccccc65)c(C(C)C)c4c(=O)[nH]3)cc12", "note": "(stereo not drawn) [Example 4-72, N-(2,3-Dihydro-1H-inden-1-yl)-3-isopropyl-6-(5-methylquinolin-3-yl)-4-oxo-4,5-dihydropyrazolo[1,5-a]pyrazine-2-carboxamide]", "IC50": 6.05},
      {"smiles": "Cc1cc(-c2cn3nc(C(=O)N[C@H]4CCN(C5CC5)C4)c(C4CC4)c3c(=O)[nH]2)ccc1Cl", "note": "(single isomer, unassigned) [6-324]", "IC50": 0.97},
      {"smiles": "Cc1cc(-c2cn3nc(C(=O)NC(C)(C)C4CC4)c(C(F)(F)F)c3c(=O)[nH]2)ccc1Cl", "note": "[6-220]", "IC50": 1.18},
      {"smiles": "COc1cc(-c2cn3nc(C(=O)N[C@@H](c4ccc(F)cc4)C(C)(C)O)c(C4CC4)c3c(=O)[nH]2)ccc1Cl", "note": "[6-484]", "IC50": 1.8},
      {"smiles": "CC[C@H](C)NC(=O)c1nn2cc(-c3ccc(C)c(Cl)c3)[nH]c(=O)c2c1C1CC1", "note": "[6-282]", "IC50": 1.6},
      {"smiles": "Cc1cc(-c2cn3nc(C(=O)NCC(C)(N)C(F)(F)F)c(C4CC4)c3c(=O)[nH]2)ccc1Cl", "note": "(single isomer, unassigned) [6-320]", "IC50": 1.35},
      {"smiles": "CC(C)(O)[C@@H](NC(=O)c1nn2cc(-c3ccc(C(F)(F)F)c(F)c3F)[nH]c(=O)c2c1C1CC1)c1ccc(F)cc1", "note": "[6-602]", "IC50": 5.65},
      {"smiles": "Cc1c(C(=O)NCc2ccccn2)nn2c(C)c(-c3ccc4ccccc4c3)[nH]c(=O)c12", "note": "[Example 3-70, 3,7-Dimethyl-6-(naphthalen-2-yl)-4-oxo-N-[(pyridin-2-yl)methyl]-4,5-dihydropyrazolo[1,5-a]pyrazine-2-carboxamide]", "IC50": 5.45},
      {"smiles": "Cc1cc(-c2cn3nc(C(=O)NCC(O)C(F)(F)F)c(C4CC4)c3c(=O)[nH]2)ccc1F", "note": "(single isomer, unassigned) [6-655]", "IC50": 9.35},
      {"smiles": "Cc1ccc(-c2cn3nc(C(=O)NCCN(CC(F)F)C4CC4)c(C4CC4)c3c(=O)[nH]2)cc1F", "note": "[6-379]", "IC50": 1.8},
      {"smiles": "CC(C)(O)[C@@H](NC(=O)c1cc2c(=O)[nH]c(-c3ccc(Cl)c(Cl)c3)cn2n1)c1ccc(F)cc1", "note": "[6-636]", "IC50": 7.63},
      {"smiles": "Cc1cc(-c2cn3nc(C(=O)N[C@@H](C)C4CC4)c(C(C)C)c3c(=O)[nH]2)ccc1Cl", "note": "[6-608]", "IC50": 1.9},
      {"smiles": "CCn1cc(Cl)c(CNC(=O)c2nn3c(C)c(-c4ccc5ccccc5c4)[nH]c(=O)c3c2C)n1", "note": "[Example 3-8, N-[(4-Chloro-1-ethyl-1H-pyrazol-3-yl)methyl]-3,7-dimethyl-6-(naphthalen-2-yl)-4-oxo-4,5-dihydropyrazolo[1,5-a]pyrazine-2-carboxamide]", "IC50": 2.9},
      {"smiles": "CC(C)(O)[C@@H](NC(=O)c1nn2cc(-c3ccc(Cl)c(OC(F)(F)F)c3)[nH]c(=O)c2c1C1CC1)c1ccc(F)cc1", "note": "[6-592]", "IC50": 1.85},
      {"smiles": "Cc1ccc(-c2cn3nc(C(=O)N[C@H](CCO)c4ccc(F)cc4)c(C#N)c3c(=O)[nH]2)cc1C", "note": "[Example 1-58, 3-Cyano-6-(3,4-dimethylphenyl)-N-[(1R)-1-(4-fluorophenyl)-3-hydroxpropyl]-4-oxo-4,5-dihydropyrazolo[1,5-a]pyrazine-2-carboxamide]", "IC50": 1.5},
      {"smiles": "Cc1c(C(=O)NC(C)c2ccc(S(C)(=O)=O)cc2)nn2c(C)c(-c3ccc4ccccc4c3)[nH]c(=O)c12", "note": "(stereo not drawn) [Example 3-23, 3,7-Dimethyl-N-[1-(4-methylsulfonylphenyl)ethyl]-6-(2-naphthyl)-4-oxo-5H-pyrazolo[1,5-a]pyrazine-2-carboxamide]", "IC50": 3.2},
      {"smiles": "CN1CC(NC(=O)c2cc3c(=O)[nH]c(-c4ccc5c(c4)CCCC5)cn3n2)(c2ccc(F)cc2)C1", "note": "[Example 1-99, N-[3-(4-Fluorophenyl)-1-methylazetidin-3-yl]-4-oxo-6-(5,6,7,8-tetrahydronaphthalen-2-yl)-4,5-dihydropyrazolo[1,5-a]pyrazine-2-carboxamide]", "IC50": 4},
      {"smiles": "COCc1c(C(=O)N[C@@H](C)C2CC2)nn2cc(-c3ccc(Cl)c(C)c3)[nH]c(=O)c12", "note": "[6-622]", "IC50": 1.25},
      {"smiles": "C[C@@H](NC(=O)c1cc2c(=O)[nH]c(-c3cnc4ccccc4c3)cn2n1)c1ccc(F)cc1", "note": "[6-62]", "IC50": 3.13},
      {"smiles": "CCc1ccc(C(C)NC(=O)c2cc3c(=O)[nH]c(-c4ccc5ccccc5c4)cn3n2)cc1", "note": "(stereo not drawn) [Example 2-39, N-[1-(4-Ethylphenyl)ethyl]-6-(2-naphthyl)-4-oxo-4,5-dihydropyrazolo[1,5-a]pyrazine-2-carboxamide]", "IC50": 3.7},
      {"smiles": "CC(NC(=O)c1cc2c(=O)[nH]c(-c3ccc4ccccc4c3)cn2n1)c1ccc(O)cc1", "note": "(stereo not drawn) [Example 1-136, N-[1-(4-Hydroxphenyl)ethyl]-6-(2-naphthyl)-4-oxo-5H-pyrazolo[1,5-a]pyrazine-2-carboxamide]", "IC50": 5.8},
      {"smiles": "CC(C)(O)[C@@H](NC(=O)c1nn2cc(-c3ccc(Cl)c(F)c3)[nH]c(=O)c2c1C1CC1)c1ccc(F)cc1", "note": "[Example 1-167, 6-(4-Chloro-3-fluorophenyl)-3-cyclopropyl-N-[(15)-1-(4-fluorophenyl)-2-hydroxy-2-methylpropyl]-4-oxo-4,5-dihydropyrazolo[1,5-a]pyrazine-2-carboxamide]", "IC50": 2.2},
      {"smiles": "COc1ccc(C(CCO)NC(=O)c2nn3cc(-c4cnc5cccc(C)c5c4)[nH]c(=O)c3c2C(C)C)cc1", "note": "(stereo not drawn) [Example 4-83, N-[3-Hydroxy-1-(4-methoxyphenyl)propyl]-3-isopropyl-6-(5-methyl-3-quinolyl)-4-oxo-5H-pyrazolo[1,5-a]pyrazine-2-carboxamide]", "IC50": 2},
      {"smiles": "Cc1cc(-c2cn3nc(C(=O)NCCC(O)C(F)(F)F)c(C4CC4)c3c(=O)[nH]2)ccc1Cl", "note": "(single isomer, unassigned) [6-311]", "IC50": 1.05},
      {"smiles": "Cc1cc(-c2cn3nc(C(=O)N[C@H](C)C(C)C)c(C4CC4)c3c(=O)[nH]2)ccc1C(F)(F)F", "note": "[Example 1-139, 3-Cyclopropyl-N-[(2R)-3-methylbutan-2-yl]-6-[3-methyl-4-(trifluoromethyl)phenyl]-4-oxo-4,5-dihydropyrazolo[1,5-a]pyrazine-2-carboxamide]", "IC50": 7.55},
      {"smiles": "O=C(NCC(O)C(F)(F)F)c1nn2cc(-c3ccc(Cl)c(Cl)c3)[nH]c(=O)c2c1C1CC1", "note": "(racemic) [6-415]", "IC50": 1.05},
      {"smiles": "COc1ccc(CNC(=O)c2cc3c(=O)[nH]c(-c4ccc5ccccc5c4)cn3n2)cc1OC", "note": "[Example 1-103, N-(3,4-Dimethoxybenzyl)-6-(2-naphthyl)-4-oxo-4,5-dihydropyrazolo[1,5-a]pyrazin-2-carboxamide]", "IC50": 1.87},
      {"smiles": "CC[C@@H](C)NC(=O)c1nn2cc(-c3ccc(C)c(Cl)c3)[nH]c(=O)c2c1C", "note": "[Example 1-149, N-[(2R)-Butan-2-yl]-6-(3-chloro-4-methylphenyl)-3-methyl-4-oxo-4,5-dihydropyrazolo[1,5-a]-pyrazine-2-carboxamide]", "IC50": 2.33},
      {"smiles": "CCCc1c(C(=O)NC2(c3ccc(F)cc3)CN(C)C2)nn2cc(-c3ccc(C)c(C)c3)[nH]c(=O)c12", "note": "[6-616]", "IC50": 0.78},
      {"smiles": "Cc1ccc(-c2cn3nc(C(=O)NC4(c5ccc(F)cc5)CNC4)c(C(F)(F)F)c3c(=O)[nH]2)cc1C", "note": "[Example 1-175, 6-(3,4-Dimethylphenyl)-N-[3-(4-fluorophenyl)azetidin-3-yl]-4-oxo-3-(trifluoromethyl)-4,5-dihydropyrazolo[1,5-a]pyrazine-2-carboxamide-hydrogen chloride (1/1)]", "IC50": 5},
      {"smiles": "O=C(NC1CCN(C2CC2)C1)c1nn2cc(-c3ccc4ccccc4c3)[nH]c(=O)c2c1C(F)(F)F", "note": "(racemic) [6-499]", "IC50": 13},
      {"smiles": "Cc1ccc(-c2cn3nc(C(=O)N[C@@H](C)C4CC4)c(C4CC4)c3c(=O)[nH]2)cc1F", "note": "[6-380]", "IC50": 1.3},
      {"smiles": "Cc1ccc(-c2cn3nc(C(=O)NC(C)CN4CCOCC4)c(C4CC4)c3c(=O)[nH]2)cc1C", "note": "(single isomer, unassigned) [6-452]", "IC50": 6.2},
      {"smiles": "CCN(CCO)CC(NC(=O)c1cc2c(=O)[nH]c(-c3cnc4cccc(C)c4c3)cn2n1)c1ccccc1", "note": "(stereo not drawn) [Example 1-115, N-[2-[Ethyl(2-hydroxyethyl)amino]-1-phenylethyl]-6-(5-methyl-3-quinolyl)-4-oxo-5H-pyrazolo-[1,5-a]pyrazine-2-carboxamide]", "IC50": 3.4},
      {"smiles": "Cc1ccc(-c2cn3nc(C(=O)N[C@@H](c4ccc(F)cc4)C(F)(F)CO)c(C(F)(F)C(F)(F)F)c3c(=O)[nH]2)cc1F", "note": "[6-491]", "IC50": 0.58},
      {"smiles": "N#Cc1c(C(=O)NC2(c3ccc(F)cc3)CC2)nn2cc(-c3ccc4ccccc4c3)[nH]c(=O)c12", "note": "[6-70]", "IC50": 4.75},
      {"smiles": "Cc1ccc(-c2cn3nc(C(=O)N[C@@H](c4ccc(F)cc4)C(C)(C)O)c(C4CC(F)(F)C4)c3c(=O)[nH]2)cc1Cl", "note": "[6-559]", "IC50": 6.07}
    ]}
  ]
}
